How the values were obtained:
[1] = molecular target: Sigma non-opioid intracellular receptor 1 (Cavia porcellus, UniProt Q60492); experiment: Displacement of [3H]-(+)-pentazocine from sigma-1 receptor in guinea pig brain cortex after 120 mins by scintillation counting analysis; format: tissue-based, Cerebral cortex
[2] = Selectivity ratio of Ki for rat liver membrane sigma-2 receptor to Ki for guinea pig brain cortex sigma-1 receptor
[3] = Displacement of [3H]-di-o-tolylguanidine from sigma-2 receptor in rat liver membranes after 120 mins by scintillation counting analysis; format: cell membranes, Membrane
[4] = molecular target: Sigma non-opioid intracellular receptor 1 (Homo sapiens, UniProt Q99720); experiment: Binding affinity to sigma-1 receptor (unknown origin)
Sequence of Sigma non-opioid intracellular receptor 1 (Homo sapiens, UniProt Q99720) (Q99720 whole entry): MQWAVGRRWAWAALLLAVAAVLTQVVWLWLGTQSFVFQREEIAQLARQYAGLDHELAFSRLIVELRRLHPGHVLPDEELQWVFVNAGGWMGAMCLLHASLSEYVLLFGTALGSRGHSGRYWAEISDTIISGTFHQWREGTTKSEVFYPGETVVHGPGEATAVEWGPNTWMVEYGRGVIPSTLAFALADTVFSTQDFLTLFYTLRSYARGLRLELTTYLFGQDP

Sequence of Sigma non-opioid intracellular receptor 1 (Cavia porcellus, UniProt Q60492) (Q60492 whole entry): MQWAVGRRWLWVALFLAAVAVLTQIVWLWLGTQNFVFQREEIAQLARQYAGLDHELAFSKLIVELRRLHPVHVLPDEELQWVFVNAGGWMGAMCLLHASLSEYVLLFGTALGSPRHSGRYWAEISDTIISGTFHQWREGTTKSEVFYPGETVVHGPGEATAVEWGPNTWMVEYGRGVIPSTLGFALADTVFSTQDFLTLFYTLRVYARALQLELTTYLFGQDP

Row | Ki [1] | Ratio Ki [2] | Ki [3] | Ki [4] | SMILES
1 | 29 nM | 4 | 130 nM |  | c1ccc(CN2CCC3(CCCc4sccc43)C2)cc1 (stereo not given)
2 | 277 nM | 0.4 | 105 nM |  | c1ccc(CCN2CCC3(CCCc4sccc43)CC2)cc1
3 | 10.5 nM | 16 | 172 nM |  | c1ccc(CN2CCC3(CCCc4sccc43)CC2)cc1

The next lines start with the compound.

Row | SMILES | Ki [1] | Ratio Ki [2] | Ki [3] | Ki [4]
4 | c1ccc(CCCN2CCC3(CCCc4sccc43)CC2)cc1 | 46 nM | 4 | 186 nM | 
5 | c1cc2c(s1)CCCC21CCN(CC2CCCCC2)CC1 | 4.3 nM | 5 | 23 nM | 
6 | c1ccc(N2CCN(CCC3OCCc4c3cnn4-c3ccccc3)CC2)cc1 (stereo not given) |  |  |  | 2.9 nM
7 | CN(C)CCC1OCCc2c1cnn2-c1ccccc1 (stereo not given) |  |  |  | 24 nM
8 | CCCCN1CCC2(CCCc3sccc32)CC1 | 6.3 nM | 8 | 48 nM | 
